In patent US12435377B2, “Cancers with loss of chromosome 16Q and/or low expression of metallothionein proteins” (THE BROAD INSTITUTE, INC., priority 2018, dated 2025):
Like-named read-outs stand apart in the source and are kept apart here.

How the values were obtained:
SH10TC cells [1] = experiment: CellTiter-Glo cellular viability assay, dose-response curves (FIG. 5B)
Procedure: (§2) Cell viability was assayed using a modified manufacturer's protocol for CellTiter-Glo® (Promega #G7573). Cells were seeded at a density of 2000 cells per well in a 96 well black, clear bottom plate (Corning #89091-012) in 100 uL total media per well. The following day different concentrations of compounds at various doses were printed in triplicate in a random well format using the Tecan D300e Digital Dispenser. After 120H, 60 μL of a 1:3 solution of CellTiterGlo reagent in 1×PBS (Corning #01018002) was added per well and allowed to incubate at RT for 10 mins. Luminescence was measured with an integration time of 0.1 s using Envision Microplates Reader (PERKIN ELMER #2105-0010). Biological replicates were averaged and normalized to vehicle control. Dose curves were generated using Graphpad Prism.

[2] = test system: biomarker-presenting cell lines; experiment: Cytotoxicity of disulfiram metabolites to biomarker-presenting cell lines; assay type: cell-based; settings: compared with the cytotoxicity of disulfiram (DSF)
Text: (§1) Biological replicates were averaged and normalized to vehicle control. Dose curves were generated using Graphpad Prism.

G401 cells [3] = experiment: CellTiter-Glo cellular viability assay, dose-response curves (FIG. 5B)
Procedure: as §2

[4] = test system: PRISM cancer cell lines stratified by chromosome 16q status; experiment: PRISM multiplexed cellular viability assay (drug repurposing library); assay type: cell-based, human; settings: for cell killing profile: PRISM screen, compared with other compounds of the drug repurposing library
Procedure: Parental cell lines were obtained from the Cancer Cell Line Encyclopedia (CCLE) project (1). PRISM cell line barcoding, pooling, and screening was performed as previously described with several improvements to the original method (2). First, the lentiviral vector was modified to encode the unique barcode identifier at the end of the puromycin resistance gene. This enables barcodes to be detected using a variant of the mRNA capture and Luminex detection method developed for the L1000 gene expression assay (3). Second, a set of ten inert barcodes were spiked-in to each well of each plate after cell lysis to control for variation in PCR amplification as detailed below.
MFI values were log-transformed (log MFI) and used to perform basic quality control. To detect probable screening artifacts, log MFI values were centered to the median log MFI for each cell line on each plate in order to put the measurements from each cell line on the same scale. For each well on each plate, the median of these centered values was then standardized according to the global median and global MAD across all plate wells in the same position. Data from wells with a standardized score of greater than 5 or less than −5 were excluded from all further processing steps.
Cell viability was calculated as the ratio of nMFI to the median of the nMFI from the DMSO-treated negative controls for each cell line on each plate. Batch effects produced from variable detection and assay conditions were then removed using ComBat (4). The final viability values were calculated as the median of the batch-corrected cell viabilities from biological replicates for each cell line, compound and dose.
Measures of dose response were obtained by fitting 3-parameter logistic curves to viability values for each compound and cell line using the R package ‘dre’. Following the practice of Smirnov and Safikhani (5), viability was truncated at 1.0 and fit as a function of drug concentration according to: […]
[formula] The Area Under the dose response Curve (AUC) was calculated using the normalized integral: […]

metastatic melanoma = settings: cited from earlier work
SF295 cells = experiment: Viability of SF295 cells with or without CRISPR-Cas9 MTF1 knockout (FIG. 7); assay type: cell-based; settings: MTF1 sg1 and MTF1 sg2 versus control guide GFP sg1
Text: XP003, XP023, psPAX, and pMD2.G vectors were acquired from the Broad Genetic Perturbation Platform (GPP). Oligos for sgRNAs designs were generated using Broad GPP sgRNA guide generator resource (broad institute.org/gpp/db/analysis-tools/sgrna-design) and the respective oligos were synthesized by Integrated DNA Technologies. In order to clone the sgRNAs into either the XPR003 guide only or XPRO23 all-in-one crispr lentiviral expression systems the protocol available on the Broad GPP website (broadinstitute.org/gpp/db/resources/protocols) was followed.
A mixture of 3E6 cells, virus, and media with 4 μg/mL polybrene (Millipore) at a total volume of 2 mL was plated per well of a 12 well plate. Cells were centrifuged at 2000 RPM for 2 hours at 30° C. After removal from incubator, 2 mL of fresh media was added to each well and cells were allowed to incubate at 37° C. overnight. The following day cells were selected for with puromycin for 3-10 days, or until the non-infected control cell were completely non-viable.
as §1

SH10TC cells [5] = test system: SH10TC cells
Procedure: as §2

G401 cells [6] = test system: G401 cells
Procedure: as §2

[7] = in chloroform, acetone and ether; cited from earlier work
[8] = cited from earlier work
[9] = order paclitaxel, elesclomol, disulfiram/thiram, DDC

CCN(CC)C(=S)S [DDC, Diethyldithiocarbamic acid]
cytotoxic activity (dose-response) (SH10TC cells [1]): active | rank of cytotoxicity IC50 among active agents (SH10TC cells [1]; [9]): highest IC50 value among those compounds that exhibited activity | biomarker-predicted cytotoxic activity [2]: retain the cytotoxicity | cytotoxic activity (dose-response) (G401 cells [3]): active | rank of cytotoxicity IC50 among active agents (G401 cells [3]; [9]): highest IC50 value among those compounds that exhibited activity

CCN(CC)C(=S)SSC(=S)N(CC)CC [disulfiram, Disulfiram]
disulfiram cytotoxicity (linear AUC) versus chromosome 16q status ([4]; Mann-Whitney U test, cell lines binned as 16q loss, normal, gain, 480 cell lines): strongly correlated with 16q loss | cytotoxic activity (dose-response) (SH10TC cells [1]): active | cytotoxic activity (dose-response) (G401 cells [3]): active

CN(NC(=O)CC(=O)NN(C)C(=S)c1ccccc1)C(=S)c1ccccc1 [elesclomol, Elesclomol]
progression-free survival (metastatic melanoma; phase III study, combined with paclitaxel, halted in 2013): did not significantly increase progression-free survival | progression-free survival (metastatic melanoma; small randomized phase II study, given in addition to paclitaxel): significantly increase progression-free survival | cell killing profile [4]: shared cell killing profile specific for cancer cell lines having 16q loss | effect of MTF1 knockout on sensitivity of SF295 cells (SF295 cells): sensitized | cytotoxic activity (dose-response) (SH10TC cells [1]): active | cytotoxic activity (dose-response) (G401 cells [3]): active

CCN(CC)C(=S)SC [methyl DDC, Methyl diethyldithiocarbamate]
cytotoxic activity (dose-response) (SH10TC cells [1]): inactive | biomarker-predicted cytotoxic activity [2]: not observed to be cytotoxic | cytotoxic activity (dose-response) (G401 cells [3]): inactive

CC(=O)O[C@H]1C(=O)[C@@]2(C)[C@H]([C@H](OC(=O)c3ccccc3)[C@]3(O)C[C@H](OC(=O)[C@H](O)[C@@H](NC(=O)c4ccccc4)c4ccccc4)C(C)=C1C3(C)C)[C@]1(OC(C)=O)CO[C@@H]1C[C@@H]2O [paclitaxel]
rank of cytotoxicity IC50 among active agents (SH10TC cells [5]): lowest IC50 value | cytotoxic activity (dose-response) (SH10TC cells [1]): active | cytotoxic activity (dose-response) (G401 cells [3]): active | rank of cytotoxicity IC50 among active agents (G401 cells [6]): lowest IC50 value

CN(C)C(=S)SSC(=S)N(C)C [thiram, Thiram]
solubility [7]: dissolve completely | toxicity ([8]; by ingestion): moderately toxic | toxicity ([8]; if inhaled): highly toxic | cell killing profile [4]: shared cell killing profile specific for cancer cell lines having 16q loss | cytotoxic activity (dose-response) (SH10TC cells [1]): active | cytotoxic activity (dose-response) (G401 cells [3]): active

copper(II) diethyldithiocarbamate [Cu-DDC]
biomarker-predicted cytotoxic activity [2]: retain the cytotoxicity
